In US20190070214A1 (priority 2016, published 2019):
Where “and” joins values, the source holds several entries; their conditions need not be identical. Identical values can stand only once. Positions of bridges follow the written chain, without caps; N, C: chain ends. Non-standard residues stand in square brackets, D forms with d. Residues, ends and D or L forms follow the SMILES beside them. *: point of attachment. Ileψ(thiazoline)Cys = CC[C@H](C)[C@H](N)C1=N[C@H](C(=O)*)CS1; dOrn = NCCC[C@@H](N)C(=O)O

Assays:
Clostridium perfringens = assay type: in vivo, broiler chicks
[1] = TNBS-induced colitis, body weight
[2] = TNBS-induced colitis, colon length and weight; settings: Group 2, prednisolone 1 mg/kg/dose t.i.d.; day 5; individual animals
[3] = TNBS-induced colitis, histopathology of colon; settings: day 5
[4] = TNBS-induced colitis, video endoscopy colitis score
[5] = Group 2, prednisolone 1 mg/kg/dose t.i.d. p.o. + TNBS, individual animals
[6] = Group 2, prednisolone 1 mg/kg/dose t.i.d., mean per animal, scale 0-4 (Table 3)
[7] = Group 2, prednisolone 1 mg/kg/dose t.i.d., individual animals, scale 0-4 (Table 2)

CC[C@H](C)[C@H](N)C1=N[C@H](C(=O)N[C@@H](CC(C)C)C(=O)N[C@H](CCC(=O)O)C(=O)N[C@H](C(=O)N[C@H]2CCCCNC(=O)[C@H](CC(N)=O)NC(=O)[C@@H](CC(=O)O)NC(=O)[C@H](Cc3cnc[nH]3)NC(=O)[C@@H](Cc3ccccc3)NC(=O)[C@H]([C@@H](C)CC)NC(=O)[C@@H](CCCN)NC2=O)[C@@H](C)CC)CS1 [BMD, bacitracin] ({Ileψ(thiazoline)Cys}-L[dE]IK[dOrn]I[dF]H[dD]N; lactam 4-C)
necrotic enteritis (NE) of the GI tract, figure given for BMD (Clostridium perfringens; BMD positive control in water, P<0.05, meaning of figure unclear): 93%
mortality normalized to untreated (100%) (Clostridium perfringens; total aggregate deaths up to and including day 14): 45%

C[C@]12C=CC(=O)C=C1CC[C@@H]1[C@@H]2[C@@H](O)C[C@@]2(C)[C@H]1CC[C@]2(O)C(=O)CO [Prednisolone]
Animal Weights Day 0 [1, 5]: 23.09 and 25.03 and 23.28 and 23.97 and 22.64 and 24.58 and 24.61 and 25.53 and 25.1 and 24.95
Animal Weights Day 1 [1, 5]: 20.19 and 21.15 and 20.41 and 20.78 and 20.62 and 21.89 and 22.21 and 22.35 (2×) and 22.44
Animal Weights Day 2 [1, 5]: 19.12 and 20.17 and 19.33 and 19.52 and 20.33 and 20.83 and 22.81 and 21.35 and 22.46 and 23.66
Animal Weights Day 3 [1, 5]: 18.77 and 19.45 and 18.6 and 19.09 and 22.59 and 21.38 and 23.44 and 21.24 and 23.92 and 24.77
Animal Weights Day 4 [1, 5]: 18.36 and 19.11 and 19.32 and 18.56 and 22.41 and 21.65 and 23.51 and 22.09 and 23.48 and 23.97
Animal Weights Day 5 [1, 5]: 19.28 and 20.1 and 21.49 and 19.89 and 22.48 and 22.05 and 24.03 and 23.91 and 24.24 and 24.3
Animal Weights Day −1 [1, 5]: 23.94 and 25.76 and 24.35 and 24.86 and 24.02 and 25.97 and 26.64 and 26.78 and 27.15 and 27.02
average weight loss from starting weight ([1]; day 2, prednisolone 1 mg/kg/dose t.i.d. p.o.): 18.3%
Colon Length [2]: 8 (3×) and 6.4 and 8.5 and 7.2 (2×) and 7 and 6.5 and 7.5
Colon Weight [2]: 0.334 and 0.344 and 0.392 and 0.386 and 0.248 and 0.276 and 0.24 and 0.318 and 0.35 and 0.224
Histology Scores Edema [3, 6]: 1.20 (4×) and 0.83 (2×) and 0.50 and 0.67 and 1.40 and 0.80
Histology Scores Inflam [3, 6]: 1.60 and 1.40 and 1.00 (3×) and 0.83 (2×) and 0.33 and 0.67 and 0.80
Histology Scores Necrosis [3, 6]: 1.00 and 0.80 (3×) and 0.40 and 0.67 and 0.00 and 0.33 and 0.50 and 0.60
edema scores vs vehicle control ([3]; prednisolone, p=0.004): significantly lower
sum pathology scores vs vehicle control ([3]; prednisolone, p=0.007): significantly lower
Endo Score Day 3 [4, 7]: 2 (4×) and 1 (2×) and 3 and 4 (3×)
Endo Score Day 5 [4, 7]: 3 (3×) and 2 (5×) and 4 and 1
colitis score of representative endoscopy image ([4]; day 5, prednisolone, scale 0-4, vehicle 3): 2
mean colitis scores vs vehicle control ([4]; prednisolone 1 mg/kg/dose t.i.d., day 3 p=0.010, day 5 p=0.027): significantly reduced mean colitis scores
